Assay results from the NIST ThermoML archive (doi:10.1016/j.jct.2012.04.007).

Legend:
[1] = 101.33 kPa, Liquid, Vibrating tube method
[2] = xn = mol fraction of the nth substance listed; settings: 101 kPa, Liquid, Vibrating tube method

CC(=O)N(C)C [N,N-dimethylethanamide]
[1]
Settings	mass density [kg/m3]
278.15 K	954.78
288.15 K	945.591
298.15 K	936.382
308.15 K	927.142
318.15 K	917.863

CC(=O)N(C)C [N,N-dimethylethanamide] + O
mass density [kg/m3], [2]
Settings	278.15 K	288.15 K	298.15 K	308.15 K	318.15 K
x2 = 0.0002901	954.8	945.61	936.4	927.16	917.88
x2 = 0.001042	954.84	945.65	936.44	927.2	917.92
x2 = 0.001656	954.87	945.68	936.47	927.23	917.95
x2 = 0.002777	954.93	945.74	936.53	927.28	918
x2 = 0.003783	954.99	945.8	936.58	927.34	918.05
x2 = 0.004833	955.05	945.85	936.64	927.39	918.1
x2 = 0.005867	955.1	945.91	936.69	927.44	918.16
x2 = 0.007593	955.19	946	936.78	927.53	918.24
x2 = 0.008945	955.27	946.07	936.85	927.6	918.31
x2 = 0.01063	955.36	946.16	936.94	927.69	918.39
x2 = 0.01192	955.43	946.23	937.01	927.75	918.46

CN(C)C=O [dimethylformamide]
[1]
Settings	mass density [kg/m3]
278.15 K	962.901
288.15 K	953.398
298.15 K	943.869
308.15 K	934.298
318.15 K	924.683

CN(C)C=O [dimethylformamide] + O
mass density [kg/m3], [2]
Settings	278.15 K	288.15 K	298.15 K	308.15 K	318.15 K
x2 = 0.0002028	962.91	953.41	943.88	934.31	924.69
x2 = 0.0008875	962.94	953.44	943.91	934.34	924.72
x2 = 0.001707	962.98	953.48	943.95	934.38	924.76
x2 = 0.002654	963.03	953.53	944	934.42	924.8
x2 = 0.003456	963.06	953.57	944.03	934.46	924.84
x2 = 0.00465	963.12	953.62	944.09	934.52	924.89
x2 = 0.006106	963.19	953.69	944.16	934.58	924.96
x2 = 0.007804	963.28	953.77	944.24	934.66	925.04
x2 = 0.009189	963.34	953.84	944.3	934.73	925.1
x2 = 0.01051	963.4	953.9	944.37	934.79	925.16
x2 = 0.01182	963.47	953.97	944.43	934.85	925.22

[2H]O[2H] [water-d2] + CC(=O)N(C)C
mass density [kg/m3], [2]
Settings	278.15 K	288.15 K	298.15 K	308.15 K	318.15 K
x1 = 0.0002901	954.8	945.61	936.4	927.16	917.88
x1 = 0.0009284	954.85	945.66	936.45	927.21	917.93
x1 = 0.00199	954.93	945.74	936.53	927.29	918
x1 = 0.002684	954.98	945.79	936.58	927.34	918.05
x1 = 0.003434	955.05	945.85	936.64	927.39	918.11
x1 = 0.004789	955.15	945.96	936.74	927.49	918.21
x1 = 0.005915	955.24	946.05	936.83	927.58	918.28
x1 = 0.007384	955.36	946.16	936.94	927.69	918.39
x1 = 0.008715	955.46	946.26	937.04	927.79	918.49
x1 = 0.01024	955.59	946.38	937.16	927.9	918.6
x1 = 0.01198	955.72	946.52	937.29	928.03	918.73

[2H]O[2H] [water-d2] + CN(C)C=O
mass density [kg/m3], [2]
Settings	278.15 K	288.15 K	298.15 K	308.15 K	318.15 K
x1 = 0.0002028	962.92	953.41	943.88	934.31	924.7
x1 = 0.0009641	962.98	953.47	943.94	934.37	924.75
x1 = 0.00191	963.05	953.54	944.01	934.44	924.82
x1 = 0.002862	963.12	953.61	944.08	934.5	924.89
x1 = 0.003812	963.19	953.68	944.15	934.57	924.96
x1 = 0.004846	963.27	953.76	944.23	934.65	925.03
x1 = 0.005839	963.35	953.84	944.3	934.72	925.1
x1 = 0.006984	963.44	953.92	944.39	934.81	925.19
x1 = 0.008587	963.56	954.05	944.51	934.93	925.31
x1 = 0.01049	963.71	954.19	944.65	935.07	925.44
x1 = 0.012	963.83	954.31	944.77	935.18	925.55
